Test results: PubChem BioAssay (NCI)
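Each compound was tested at five concentrations against cells in 96-well plates for 48 hours. Definition used: TGI = concentration required for complete inhibition of growth.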

Columns and labels:
Experiment in all cases: NCI-60 cell line screen, 48 h
[1] = test system: IGROV1 ovarian
[2] = test system: RXF 393 renal
[3] = test system: LOX IMVI melanoma
[4] = test system: UACC-62 melanoma
[5] = test system: M19-MEL melanoma
[6] = test system: TK-10 renal
[7] = test system: 786-0 renal
[8] = test system: CCRF-CEM leukemia
[9] = test system: SNB-78 CNS
[10] = test system: CAKI-1 renal
[11] = test system: SN12C renal
[12] = test system: ACHN renal
[13] = test system: NCI-H226 lung
[14] = test system: SR leukemia
[15] = test system: UACC-257 melanoma
[16] = test system: HCT-116 colon
[17] = test system: SNB-75 CNS
[18] = test system: EKVX NSCLC
[19] = test system: UO-31 renal
[20] = test system: HOP-62 NSCLC
[21] = test system: A498 renal
[22] = test system: KM20L2 colon
[23] = test system: OVCAR-5 ovarian
[24] = test system: A549 NSCLC
[25] = test system: OVCAR-4 ovarian
[26] = test system: OVCAR-3 ovarian
[27] = test system: SK-MEL-5 melanoma
[28] = test system: OVCAR-8 ovarian
[29] = test system: COLO 205 colon
[30] = test system: U251 CNS
[31] = test system: NCI-H522 lung
[32] = test system: SK-MEL-28 melanoma
[33] = test system: SF-539 CNS
[34] = test system: DMS 114 small cell lung
[35] = test system: HOP-18 NSCLC
[36] = test system: HT29 colon
[37] = test system: HCT-15 colon
[38] = test system: DMS 273 small cell lung
[39] = test system: DLD-1 colon
[40] = test system: SNB-19 CNS
[41] = test system: SK-OV-3 ovarian
[42] = test system: MOLT-4 leukemia
[43] = test system: SF-268 CNS
[44] = test system: SF-295 CNS
[45] = test system: HCC-2998 colon
[46] = test system: NCI-H460 lung
[47] = test system: RXF-631 renal
[48] = test system: NCI-H23 lung
[49] = test system: MALME-3M melanoma
[50] = test system: SK-MEL-2 melanoma
[51] = test system: KM12 colon
[52] = test system: HL-60(TB) leukemia
[53] = test system: K-562 leukemia
[54] = test system: LXFL 529 NSCLC
[55] = test system: M14 melanoma
[56] = test system: RPMI-8226 leukemia
[57] = test system: SW-620 colon

Measured: TGI

COC(=O)C(C(=O)C(=O)Nc1nc2ccc([N+](=O)[O-])cc2s1)c1nc2ccc(Cl)cc2[nH]c1=O (configuration not stated)
> 100 µM: all assays above
